According to patent US20250090550A1, “INJECTABLE COMPOSITION COMPRISING CYTOLYTIC COMPOUND IN GEL, GEL-FORMING SOLUTION OR GEL-FORMING SUSPENSION FOR REDUCTION OF FAT” (GLONOVA PHARMA CO., LTD., priority 2022, published 2025):
Where a name gives a salt, the structure may show the parent alone.

Columns and labels:
fat tissue = details: after injection of deoxycholic acid solution; cited from earlier work
[1] = Gel formation of mixtures added to 0.9% saline, placed at 37° C.; type: physicochemical
Description: In the following examples, DCA-Na solutions were mixed with other components to prepare an injectable composition. Unless otherwise stated, the requirements for the final concentration of DCA-Na in the obtained compositions were ≥70% of initial solutions (≥36.96 mg/mL for 5% solution, ≥7.39 mg/mL for 1% solution). The appearances after mixing DCA-Na with other components were observed after placing at 25, 37 and 42° C. for 20, 30, 45, 60 and 120 minutes. 200 μL of the mixtures were also added to 200 μL 0.9% saline respectively and their appearances were also observed after placing at 37° C. for 20, 30, 45, 60 and 120 minutes. Photos were taken and showing in the figures.

SMILES | permeation into fat tissue after injection (fat tissue) | suitable concentration of lidocaine HCl mixing with 1% DCA-Na solution ([1]; mixtures of 1% DCA-Na and LA + lidocaine HCl) | tolerable concentration of lidocaine HCl mixing with 5% DCA-Na solution ([1]; mixtures of 5% DCA-Na and LA in lidocaine HCl)
C[C@H](CCC(=O)O)[C@H]1CC[C@H]2[C@@H]3CC[C@@H]4C[C@H](O)CC[C@]4(C)[C@H]3C[C@H](O)[C@]12C [deoxycholic acid, Deoxycholic acid] | more than 1 centimeter | – | –
CCN(CC)CC(=O)Nc1c(C)cccc1C [lidocaine HCl] | – | around 3 mg/mL | up to 6 mg/mL
